Columns and labels:
Assay in all cases: radiometric filter-binding kinase assay, Kinase HotSpot
Conditions in all cases: compound 0.5 µM; ATP 10 µM
LTK (human) = LTK (human) (UniProt P29376)
OXSR1 (human) = OXSR1 (human) (UniProt O95747)
CDK4 CCND1 (human) = CDK4 CCND1 (human) (UniProt P24385+P11802)
MAP3K10 (human) = MAP3K10 (human) (UniProt Q02779)
MAP3K14 (human) = MAP3K14 (human) (UniProt Q99558)
BRSK2 (human) = BRSK2 (human) (UniProt Q8IWQ3)
ROCK1 (human) = ROCK1 (human) (UniProt Q13464)
STK4 (human) = STK4 (human) (UniProt Q13043)
AKT3 (human) = AKT3 (human) (UniProt Q9Y243)
PLK2 (human) = PLK2 (human) (UniProt Q9NYY3)
Chain of PLK2 (human) (Q9NYY3 whole entry, looked up): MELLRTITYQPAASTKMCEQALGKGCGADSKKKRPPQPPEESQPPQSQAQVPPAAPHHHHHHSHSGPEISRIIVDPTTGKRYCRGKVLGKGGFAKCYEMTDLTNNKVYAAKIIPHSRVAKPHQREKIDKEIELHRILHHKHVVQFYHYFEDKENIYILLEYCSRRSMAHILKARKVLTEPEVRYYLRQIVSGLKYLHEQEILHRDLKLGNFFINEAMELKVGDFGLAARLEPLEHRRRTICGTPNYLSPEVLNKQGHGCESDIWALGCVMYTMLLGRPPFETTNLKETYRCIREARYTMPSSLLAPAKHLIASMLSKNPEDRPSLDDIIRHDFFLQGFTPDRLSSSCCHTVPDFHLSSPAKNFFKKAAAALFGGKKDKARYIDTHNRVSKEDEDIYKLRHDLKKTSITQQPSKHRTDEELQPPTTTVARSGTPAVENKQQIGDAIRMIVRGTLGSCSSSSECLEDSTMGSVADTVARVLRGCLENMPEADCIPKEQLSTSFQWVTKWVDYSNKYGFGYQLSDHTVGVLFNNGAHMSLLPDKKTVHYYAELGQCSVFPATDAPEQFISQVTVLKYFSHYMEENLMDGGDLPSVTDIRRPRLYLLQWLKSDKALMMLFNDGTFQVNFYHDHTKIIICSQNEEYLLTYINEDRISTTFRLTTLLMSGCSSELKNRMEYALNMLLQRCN

RPS6KB1 (human) = RPS6KB1 (human) (UniProt P23443)
Chain of RPS6KB1 (human) (P23443 whole entry, looked up): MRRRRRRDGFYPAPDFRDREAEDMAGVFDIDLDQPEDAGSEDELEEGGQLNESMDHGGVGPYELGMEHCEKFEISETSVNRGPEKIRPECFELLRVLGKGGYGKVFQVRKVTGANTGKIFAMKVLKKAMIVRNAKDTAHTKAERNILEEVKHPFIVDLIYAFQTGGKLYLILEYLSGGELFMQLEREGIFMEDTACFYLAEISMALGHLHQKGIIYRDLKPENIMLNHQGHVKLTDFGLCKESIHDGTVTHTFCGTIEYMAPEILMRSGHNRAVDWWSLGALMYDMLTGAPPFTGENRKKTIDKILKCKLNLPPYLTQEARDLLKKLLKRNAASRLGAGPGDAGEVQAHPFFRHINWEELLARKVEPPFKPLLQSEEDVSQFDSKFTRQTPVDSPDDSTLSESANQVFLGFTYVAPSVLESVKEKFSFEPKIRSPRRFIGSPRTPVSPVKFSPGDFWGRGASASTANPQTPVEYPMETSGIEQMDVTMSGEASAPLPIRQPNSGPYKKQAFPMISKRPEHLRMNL

DDR2 (human) = DDR2 (human) (UniProt Q16832)
Chain of DDR2 (human) (Q16832 whole entry, looked up): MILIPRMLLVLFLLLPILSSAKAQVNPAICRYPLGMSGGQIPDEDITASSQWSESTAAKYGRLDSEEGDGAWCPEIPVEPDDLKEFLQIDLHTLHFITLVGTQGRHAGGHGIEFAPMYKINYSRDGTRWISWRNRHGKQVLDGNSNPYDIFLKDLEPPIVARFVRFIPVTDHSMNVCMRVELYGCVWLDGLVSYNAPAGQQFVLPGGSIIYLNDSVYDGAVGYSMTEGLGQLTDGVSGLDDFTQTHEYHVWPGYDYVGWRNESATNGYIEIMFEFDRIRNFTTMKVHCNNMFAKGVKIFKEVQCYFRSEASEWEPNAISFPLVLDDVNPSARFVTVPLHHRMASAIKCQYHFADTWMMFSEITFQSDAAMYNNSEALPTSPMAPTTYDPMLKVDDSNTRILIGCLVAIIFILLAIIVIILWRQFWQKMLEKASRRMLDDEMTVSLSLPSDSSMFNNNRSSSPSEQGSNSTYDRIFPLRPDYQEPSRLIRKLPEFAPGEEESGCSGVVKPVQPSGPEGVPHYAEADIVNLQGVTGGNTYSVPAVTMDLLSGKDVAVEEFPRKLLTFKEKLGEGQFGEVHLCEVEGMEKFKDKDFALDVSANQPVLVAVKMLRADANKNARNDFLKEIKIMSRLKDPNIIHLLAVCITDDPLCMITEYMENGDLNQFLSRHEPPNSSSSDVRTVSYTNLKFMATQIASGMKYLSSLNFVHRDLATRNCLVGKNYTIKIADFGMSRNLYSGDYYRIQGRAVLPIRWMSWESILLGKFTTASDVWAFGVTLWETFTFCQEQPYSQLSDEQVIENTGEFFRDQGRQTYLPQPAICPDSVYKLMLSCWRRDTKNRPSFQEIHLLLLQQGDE

MAP2K1 (human) = MAP2K1 (human) (UniProt Q02750)
PRKD3 (human) = PRKD3 (human) (UniProt O94806)
ALK (human) = ALK (human) (UniProt Q9UM73)
EPHB1 (human) = EPHB1 (human) (UniProt P54762)
STK16 (human) = STK16 (human) (UniProt O75716)
PTK2B (human) = PTK2B (human) (UniProt Q14289)
IKBKE (human) = IKBKE (human) (UniProt Q14164)
MUSK (human) = MUSK (human) (UniProt O15146)
TSSK1B (human) = TSSK1B (human) (UniProt Q9BXA7)
CSNK1G1 (human) = CSNK1G1 (human) (UniProt Q9HCP0)
ADRBK1 (human) = ADRBK1 (human) (UniProt P25098)
CLK2 (human) = CLK2 (human) (UniProt P49760)
CHEK1 (human) = CHEK1 (human) (UniProt O14757)
ROCK2 (human) = ROCK2 (human) (UniProt O75116)
IRAK4 (human) = IRAK4 (human) (UniProt Q9NWZ3)
PAK3 (human) = PAK3 (human) (UniProt O75914)
MAPK11 (human) = MAPK11 (human) (UniProt Q15759)
Chain of MAPK11 (human) (Q15759 whole entry, looked up): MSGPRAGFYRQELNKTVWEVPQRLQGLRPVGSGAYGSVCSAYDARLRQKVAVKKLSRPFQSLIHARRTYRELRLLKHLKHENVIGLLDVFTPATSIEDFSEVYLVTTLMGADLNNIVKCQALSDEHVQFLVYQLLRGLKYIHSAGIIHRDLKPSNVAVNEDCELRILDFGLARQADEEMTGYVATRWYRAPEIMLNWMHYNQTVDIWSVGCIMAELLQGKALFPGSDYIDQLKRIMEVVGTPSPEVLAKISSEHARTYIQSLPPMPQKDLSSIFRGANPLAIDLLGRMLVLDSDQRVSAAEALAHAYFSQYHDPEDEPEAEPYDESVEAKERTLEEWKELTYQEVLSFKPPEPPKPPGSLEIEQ

HIPK1 (human) = HIPK1 (human) (UniProt Q86Z02)
SIK2 (human) = SIK2 (human) (UniProt Q9H0K1)
DYRK3 (human) = DYRK3 (human) (UniProt O43781)
STK17A (human) = STK17A (human) (UniProt Q9UEE5)
BLK (human) = BLK (human) (UniProt P51451)
Chain of BLK (human) (P51451 whole entry, looked up): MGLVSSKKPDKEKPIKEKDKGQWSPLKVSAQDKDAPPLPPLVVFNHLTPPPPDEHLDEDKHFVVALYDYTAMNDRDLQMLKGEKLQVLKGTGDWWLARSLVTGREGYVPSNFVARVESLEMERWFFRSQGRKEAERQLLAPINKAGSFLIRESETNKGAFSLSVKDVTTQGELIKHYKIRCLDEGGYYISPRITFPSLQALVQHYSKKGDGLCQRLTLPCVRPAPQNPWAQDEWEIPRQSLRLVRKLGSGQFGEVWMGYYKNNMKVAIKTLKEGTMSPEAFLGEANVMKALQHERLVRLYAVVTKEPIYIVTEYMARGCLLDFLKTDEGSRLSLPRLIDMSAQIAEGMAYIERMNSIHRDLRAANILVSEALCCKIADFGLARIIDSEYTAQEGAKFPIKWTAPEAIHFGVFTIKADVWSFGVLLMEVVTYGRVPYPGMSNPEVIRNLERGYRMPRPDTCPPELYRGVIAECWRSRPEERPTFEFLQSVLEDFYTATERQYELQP

SRC (human) = SRC (human) (UniProt P12931)
Chain of SRC (human) (P12931 whole entry, looked up): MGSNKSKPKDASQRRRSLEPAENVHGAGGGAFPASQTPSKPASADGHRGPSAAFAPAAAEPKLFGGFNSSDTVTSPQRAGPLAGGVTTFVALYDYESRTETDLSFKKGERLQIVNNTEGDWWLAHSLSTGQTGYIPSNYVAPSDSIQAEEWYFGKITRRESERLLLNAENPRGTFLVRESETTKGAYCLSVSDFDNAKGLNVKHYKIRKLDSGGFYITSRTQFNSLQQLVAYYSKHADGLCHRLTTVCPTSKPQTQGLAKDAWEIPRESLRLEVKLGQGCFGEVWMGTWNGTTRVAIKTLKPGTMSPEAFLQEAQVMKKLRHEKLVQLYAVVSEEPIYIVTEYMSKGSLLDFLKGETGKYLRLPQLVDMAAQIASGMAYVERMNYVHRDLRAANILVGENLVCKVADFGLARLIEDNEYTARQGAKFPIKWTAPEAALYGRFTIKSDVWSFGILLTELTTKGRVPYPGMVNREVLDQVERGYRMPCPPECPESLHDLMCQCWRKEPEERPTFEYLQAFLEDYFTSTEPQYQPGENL

MAP3K8 (human) = MAP3K8 (human) (UniProt P41279)
[1] = tested on: MAP2K6 (human), P52564 [S207E/T211E]
PRKCI (human) = PRKCI (human) (UniProt P41743)
MAP2K2 (human) = MAP2K2 (human) (UniProt P36507)
Chain of MAP2K2 (human) (P36507 whole entry, looked up): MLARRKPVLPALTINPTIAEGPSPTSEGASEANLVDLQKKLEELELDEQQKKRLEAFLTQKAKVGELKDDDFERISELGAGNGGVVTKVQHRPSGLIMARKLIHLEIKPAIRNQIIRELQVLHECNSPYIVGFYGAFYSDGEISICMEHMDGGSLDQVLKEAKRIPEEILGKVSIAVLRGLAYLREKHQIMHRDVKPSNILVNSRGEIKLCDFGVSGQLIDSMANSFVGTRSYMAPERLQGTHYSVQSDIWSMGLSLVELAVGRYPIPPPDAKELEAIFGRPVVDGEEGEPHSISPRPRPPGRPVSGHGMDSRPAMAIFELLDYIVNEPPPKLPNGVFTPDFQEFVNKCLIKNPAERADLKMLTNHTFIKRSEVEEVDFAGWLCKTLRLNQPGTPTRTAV

CAMK1 (human) = CAMK1 (human) (UniProt Q14012)
CSNK1E (human) = CSNK1E (human) (UniProt P49674)
PAK6 (human) = PAK6 (human) (UniProt Q9NQU5)

Chain of OXSR1 (human) (O95747 whole entry, looked up): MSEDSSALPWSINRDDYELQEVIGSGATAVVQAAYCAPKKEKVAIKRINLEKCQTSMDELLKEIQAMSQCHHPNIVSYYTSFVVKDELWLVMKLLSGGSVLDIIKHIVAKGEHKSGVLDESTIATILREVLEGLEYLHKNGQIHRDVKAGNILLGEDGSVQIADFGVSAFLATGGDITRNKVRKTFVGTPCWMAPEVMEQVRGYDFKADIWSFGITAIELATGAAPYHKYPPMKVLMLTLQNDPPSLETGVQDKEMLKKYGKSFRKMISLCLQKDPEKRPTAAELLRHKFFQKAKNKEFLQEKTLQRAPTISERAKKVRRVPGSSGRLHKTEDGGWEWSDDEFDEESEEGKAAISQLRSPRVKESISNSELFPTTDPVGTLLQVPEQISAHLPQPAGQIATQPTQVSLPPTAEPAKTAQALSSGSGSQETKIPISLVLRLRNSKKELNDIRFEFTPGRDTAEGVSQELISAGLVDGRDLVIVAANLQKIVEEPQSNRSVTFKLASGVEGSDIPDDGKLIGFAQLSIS
Chain of CDK4 CCND1 (human) (P11802 whole entry, looked up): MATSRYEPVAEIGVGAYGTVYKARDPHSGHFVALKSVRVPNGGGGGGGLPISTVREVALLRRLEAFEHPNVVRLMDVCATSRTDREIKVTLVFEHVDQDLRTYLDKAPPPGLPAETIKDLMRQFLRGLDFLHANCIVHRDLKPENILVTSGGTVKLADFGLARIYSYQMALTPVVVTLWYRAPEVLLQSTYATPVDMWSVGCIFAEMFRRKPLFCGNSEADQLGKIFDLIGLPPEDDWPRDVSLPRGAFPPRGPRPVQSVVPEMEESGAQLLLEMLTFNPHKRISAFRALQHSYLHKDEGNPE
Chain of CDK4 CCND1 (human) (P24385 whole entry, looked up): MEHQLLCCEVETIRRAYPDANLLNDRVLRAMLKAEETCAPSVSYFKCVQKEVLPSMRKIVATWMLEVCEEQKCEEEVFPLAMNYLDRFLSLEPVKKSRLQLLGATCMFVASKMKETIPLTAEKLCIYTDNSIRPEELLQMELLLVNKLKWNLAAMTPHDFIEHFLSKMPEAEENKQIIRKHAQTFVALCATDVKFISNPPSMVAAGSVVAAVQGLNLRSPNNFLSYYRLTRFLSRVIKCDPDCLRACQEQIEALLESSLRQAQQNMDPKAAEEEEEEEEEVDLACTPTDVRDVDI

O=C(c1cc2cc(O)ccc2[nH]1)c1cc2cc(O)ccc2[nH]1
residual activity (LTK (human)): 91.6%
residual activity (OXSR1 (human)): 105%
residual activity (CDK4 CCND1 (human)): 91.5%
residual activity (MAP3K10 (human)): 91.7%
residual activity (MAP3K14 (human)): 77.1%
residual activity (BRSK2 (human)): 44.3%
residual activity (ROCK1 (human)): 96.2%
residual activity (STK4 (human)): 33.7%
residual activity (AKT3 (human)): 102%
residual activity (PLK2 (human)): 102%
residual activity (RPS6KB1 (human)): 85%
residual activity (DDR2 (human)): 95.7%
residual activity (MAP2K1 (human)): 103%
residual activity (PRKD3 (human)): 54.9%
residual activity (ALK (human)): 97%
residual activity (EPHB1 (human)): 97%
residual activity (STK16 (human)): 54.6%
residual activity (PTK2B (human)): 85.5%
residual activity (IKBKE (human)): 81.6%
residual activity (MUSK (human)): 55.1%
residual activity (TSSK1B (human)): 96.4%
residual activity (CSNK1G1 (human)): 93.1%
residual activity (ADRBK1 (human)): 98.2%
residual activity (CLK2 (human)): 105%
residual activity (CHEK1 (human)): 82.5%
residual activity (ROCK2 (human)): 92.9%
residual activity (IRAK4 (human)): 85.9%
residual activity (PAK3 (human)): 99.2%
residual activity (MAPK11 (human)): 95.7%
residual activity (HIPK1 (human)): 94.3%
residual activity (SIK2 (human)): 78.3%
residual activity (DYRK3 (human)): 115%
residual activity (STK17A (human)): 51.7%
residual activity (BLK (human)): 49.7%
residual activity (SRC (human)): 36.4%
residual activity (MAP3K8 (human)): 93%
residual activity [1]: 93.6%
residual activity (PRKCI (human)): 98.4%
residual activity (MAP2K2 (human)): 98.8%
residual activity (CAMK1 (human)): 97.4%
residual activity (CSNK1E (human)): 88.4%
residual activity (PAK6 (human)): 74.4%

O=C1Nc2ccc(Br)cc2/C1=C\c1cc2c([nH]1)CCCC2
residual activity (LTK (human)): 70.6%
residual activity (OXSR1 (human)): 96.7%
residual activity (CDK4 CCND1 (human)): 97.9%
residual activity (MAP3K10 (human)): 99.8%
residual activity (MAP3K14 (human)): 112%
residual activity (BRSK2 (human)): 93.8%
residual activity (ROCK1 (human)): 98.8%
residual activity (STK4 (human)): 44.1%
residual activity (AKT3 (human)): 96.6%
residual activity (PLK2 (human)): 102%
residual activity (RPS6KB1 (human)): 91.9%
residual activity (DDR2 (human)): 101%
residual activity (MAP2K1 (human)): 84.8%
residual activity (PRKD3 (human)): 90.3%
residual activity (ALK (human)): 88.5%
residual activity (EPHB1 (human)): 85.5%
residual activity (STK16 (human)): 94.3%
residual activity (PTK2B (human)): 82.4%
residual activity (IKBKE (human)): 89.5%
residual activity (MUSK (human)): 88.6%
residual activity (TSSK1B (human)): 36.1%
residual activity (CSNK1G1 (human)): 102%
residual activity (ADRBK1 (human)): 105%
residual activity (CLK2 (human)): 88.6%
residual activity (CHEK1 (human)): 81.8%
residual activity (ROCK2 (human)): 92.8%
residual activity (IRAK4 (human)): 67.2%
residual activity (PAK3 (human)): 96.4%
residual activity (MAPK11 (human)): 96.8%
residual activity (HIPK1 (human)): 97.2%
residual activity (SIK2 (human)): 92.7%
residual activity (DYRK3 (human)): 94%
residual activity (STK17A (human)): 72.9%
residual activity (BLK (human)): 74.4%
residual activity (SRC (human)): 88.8%
residual activity (MAP3K8 (human)): 105%
residual activity [1]: 110%
residual activity (PRKCI (human)): 92%
residual activity (MAP2K2 (human)): 92.1%
residual activity (CAMK1 (human)): 98.4%
residual activity (CSNK1E (human)): 84.3%
residual activity (PAK6 (human)): 89.8%

N#Cc1c[nH]c2c[nH]/c(=N\Cc3cccnc3)cc2/c1=N\c1ccc(F)c(Cl)c1
residual activity (LTK (human)): 95.6%
residual activity (OXSR1 (human)): 87.7%
residual activity (CDK4 CCND1 (human)): 97.6%
residual activity (MAP3K10 (human)): 101%
residual activity (MAP3K14 (human)): 118%
residual activity (BRSK2 (human)): 100%
residual activity (ROCK1 (human)): 99.8%
residual activity (STK4 (human)): 100%
residual activity (AKT3 (human)): 95.1%
residual activity (PLK2 (human)): 110%
residual activity (RPS6KB1 (human)): 89.4%
residual activity (DDR2 (human)): 91.9%
residual activity (MAP2K1 (human)): 86.2%
residual activity (PRKD3 (human)): 90.4%
residual activity (ALK (human)): 107%
residual activity (EPHB1 (human)): 93.1%
residual activity (STK16 (human)): 93.8%
residual activity (PTK2B (human)): 100%
residual activity (IKBKE (human)): 90.6%
residual activity (MUSK (human)): 55.6%
residual activity (TSSK1B (human)): 84.4%
residual activity (CSNK1G1 (human)): 87%
residual activity (ADRBK1 (human)): 95.7%
residual activity (CLK2 (human)): 79.9%
residual activity (CHEK1 (human)): 90.2%
residual activity (ROCK2 (human)): 97.1%
residual activity (IRAK4 (human)): 100%
residual activity (PAK3 (human)): 99.2%
residual activity (MAPK11 (human)): 102%
residual activity (HIPK1 (human)): 98.6%
residual activity (SIK2 (human)): 97.6%
residual activity (DYRK3 (human)): 96.3%
residual activity (STK17A (human)): 79.6%
residual activity (BLK (human)): 99.9%
residual activity (SRC (human)): 92.6%
residual activity (MAP3K8 (human)): 79.1%
residual activity [1]: 115%
residual activity (PRKCI (human)): 94.7%
residual activity (MAP2K2 (human)): 105%
residual activity (CAMK1 (human)): 99.1%
residual activity (CSNK1E (human)): 81.8%
residual activity (PAK6 (human)): 104%

— the kinase profiling compilation of Christmann-Franck et al. (2016)
